Results taken from paper PMC2712691, “Bio-Benchmarking of Electronic Nose Sensors” (PLoS ONE, 2009).
pEC50: −log10 of the molar value.

Target: T1, dOR35a (Drosophila melanogaster, UniProt Q9V3Q2)
T1 construct: gene Or35a; pIB-DmOr35a transiently expressed in Sf9 cells
T1 sequence (Q9V3Q2 1-409): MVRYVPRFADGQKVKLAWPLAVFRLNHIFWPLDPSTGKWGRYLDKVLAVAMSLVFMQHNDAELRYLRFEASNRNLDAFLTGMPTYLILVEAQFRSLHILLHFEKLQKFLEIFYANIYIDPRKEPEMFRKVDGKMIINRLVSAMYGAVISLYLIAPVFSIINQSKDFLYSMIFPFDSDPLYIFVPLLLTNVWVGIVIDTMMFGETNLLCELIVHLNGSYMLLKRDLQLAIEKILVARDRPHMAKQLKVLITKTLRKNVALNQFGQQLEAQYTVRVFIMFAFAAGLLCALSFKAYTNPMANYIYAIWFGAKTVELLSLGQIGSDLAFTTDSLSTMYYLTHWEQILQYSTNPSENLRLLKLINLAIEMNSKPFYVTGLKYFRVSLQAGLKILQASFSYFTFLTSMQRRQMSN
Test: Fluo4 calcium imaging of receptor transiently expressed in Sf9 cells, concentration-response
Format: cell-based

pEC50 | SMILES
7.64 | CCCCCCCCO [1-octanol]
5.46 | C=CC(O)CCCCC (centres unmarked) [1-octen-3-ol]
